Reference: PubChem BioAssay AID1963830 (Molecular Pharmacology Branch, DTP, NCI, 2024)

System: 922993-354-T-J3-PDC complex spheroid viability
Test: Anticancer human tumor 922993-354-T-J3-PDC patient-derived endometrial carcinoma cell line growth inhibition [POLQ]
Details: for IC50: curve of first compound; for viability, T/C: stronger effect = lower value
Description: Multicellular complex tumor spheroid response to Polymerase (POL) inhibitors (novobiocin, ART-558, RP6685) in combination with a variety of drugs and investigational agents in selected tumor cell lines
The POL inhibitors (novobiocin, ART-558, and RP6685) were evaluated both individually and in combination with standard of care and investigational anticancer small molecules within a complex spheroid model of solid tumors. . Complex spheroids include a stromal component modeled by human endothelial cells (HUVEC) and fibroblasts modeled by human mesenchymal stem cells (MSCs). The concentration ranges selected for each drug and investigational agent were based upon clinically achievable concentrations if the clinical Cmax of the agent was known.
Compounds. The drugs and investigational agents: novobiocin (NSC847541), ART-558 (NSC835418), RP-6685 (NSC848927), peposertib (NSC802822), ceralasertib (NSC780249), elimusertib (NSC800525), camonsertib (NSC841442), AZD-1390 (NSC803789), olaparib (NSC753686), talazoparib (NSC767125), rucaparib (NSC756644), sotorasib (NSC818433), MRTX-1133 (NSC836407), SN-38 (NSC673596), topotecan (NSC609699), epotoside (NSC141540), doxorubicin (NSC123127), gemcitabine (NSC613327), 5-fluorouracil (NSC19893), paclitaxel (NSC125973), vemurafenib (NSC761431), MSA-2 (NSC828583), SN-011 (NSC837082), adavosertib (NSC754352), prexasertib (NSC758257), carboplatin (NSC241240) and oxaliplatin (NSC266046), were obtained from the National Cancer Institute (NCI) Developmental Therapeutics Program Chemical Repository (21). The FDA-approved anticancer drug set is available from the Developmental Therapeutics Program at https://dtp.cancer.gov/organization/dscb/obtaining/. […] The stock solutions were prepared in dimethyl sulfoxide (DMSO, Sigma-Aldrich, St. Louis, MO, cat. D2650), except for the platinum compounds which were prepared in saline (Quality Biological, Gaithersburg, MD, cat. 114-055-101), at 800-fold the tested concentration and stored at -70 degrees C prior to their use. All drugs and investigational agents were tested over a range starting from a high concentration at or near the clinical Cmax and decreasing in half-log increments. If the clinical Cmax for an agent had not been determined, the highest concentration tested was 10 microM, except for SN-38, which was tested at a high concentration of 1 microM.
Cell Culture. All cells were maintained in an incubator at 37 degrees C and 5% CO2 with 95% humidity. The PDC lines were cultured according to standard operating procedures established by the NCI PDMR (https://pdmr.cancer.gov). Table 3 of the manuscript, lists the cell lines along with the number of the three cell types plated to form the mct-spheroids and media for tumor cell growth. After thawing, all PDC lines, except 997537-175-T-J1-PDC and 415267-285-R-J2-PDC, were cultured in Matrigel-coated flasks prepared with a working solution of 1X Ham's F-12 nutrient mix, without supplementation (Thermo Fisher Scientific, cat. 11765054), 100 U/mL penicillin-streptomycin (Thermo Fisher Scientific, cat. 15140122), and 2.5% Matrigel (Corning Inc., Corning, NY, cat. 354248) for the first three passages. The two PDC lines 997537-175-T-J1-PDC and 415267-285-R-J2-PDC were cultured on uncoated flasks. The 857933-349-R-J2-PDC line was cultured in 6C/Colon 1B media containing advanced DMEM/F-12 (Thermo Fisher Scientific, cat. 12634028), 10 mM HEPES (Thermo Fisher Scientific, cat. 15630080), 1X GlutaMAX supplement (Thermo Fisher Scientific, cat. 35050061), 0.1 mg/mL primocin (InvivoGen, San Diego, CA, cat. ant-pm-2), 10% defined fetal bovine serum, heat inactivated (HyClone Laboratories Inc., Logan, UT, cat. SH30070.03HI), 50% L-WRN conditioned media (ATCC, cat. CRL-3276), 1.25 mM N-Acetyl-L-cysteine (Sigma-Aldrich, cat. A9165), 10 mM nicotinamide (Sigma-Aldrich, cat. N0636), 1X B-27 supplement (Thermo Fisher Scientific, cat. 17504044), 1X N-2 supplement (Thermo Fisher Scientific, cat. […]

[1] = second compound 0.0316 µM, first compound 0.0316 µM
[2] = second compound 0.0316 µM, first compound 0.1 µM
[3] = second compound 0.0316 µM, first compound 0.316 µM
[4] = second compound 0.0316 µM, first compound 1 µM
[5] = second compound 0.0316 µM, first compound 3.16 µM
[6] = second compound 0.0316 µM, first compound 10 µM
[7] = second compound 0.1 µM, first compound 0.0316 µM
[8] = second compound 0.1 µM, first compound 0.1 µM
[9] = second compound 0.1 µM, first compound 0.316 µM
[10] = second compound 0.1 µM, first compound 1 µM
[11] = second compound 0.1 µM, first compound 3.16 µM
[12] = second compound 0.1 µM, first compound 10 µM
[13] = second compound 0.316 µM, first compound 0.0316 µM
[14] = second compound 0.316 µM, first compound 0.1 µM
[15] = second compound 0.316 µM, first compound 0.316 µM
[16] = second compound 0.316 µM, first compound 1 µM
[17] = second compound 0.316 µM, first compound 3.16 µM
[18] = second compound 0.316 µM, first compound 10 µM
[19] = second compound 1 µM, first compound 0.0316 µM
[20] = second compound 1 µM, first compound 0.1 µM
[21] = second compound 1 µM, first compound 0.316 µM
[22] = second compound 1 µM, first compound 1 µM
[23] = second compound 1 µM, first compound 3.16 µM
[24] = second compound 1 µM, first compound 10 µM
[25] = second compound 3.16 µM, first compound 0.0316 µM
[26] = second compound 3.16 µM, first compound 0.1 µM
[27] = second compound 3.16 µM, first compound 0.316 µM
[28] = second compound 3.16 µM, first compound 1 µM
[29] = second compound 3.16 µM, first compound 3.16 µM
[30] = second compound 3.16 µM, first compound 10 µM
[31] = second compound 10 µM, first compound 0.0316 µM
[32] = second compound 10 µM, first compound 0.1 µM
[33] = second compound 10 µM, first compound 0.316 µM
[34] = second compound 10 µM, first compound 1 µM
[35] = second compound 10 µM, first compound 3.16 µM
[36] = second compound 10 µM, first compound 10 µM
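Also: spheroids exposed to the agents for one week.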
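For viability, T/C in this document: 100% = DMSO vehicle control wells.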

C#Cc1c(F)ccc2cc(O)cc(-c3ncc4c(N5CC6CCC(C5)N6)nc(OCC56CCCN5CC(F)C6)nc4c3F)c12 (centres undefined) + Nc1ccc(C#CCN(C(=O)Cc2ncc(C(F)(F)F)cc2C(F)(F)F)c2ccc(F)cc2)nn1
IC50 (second compound 0.0316 µM): > 10 µM
IC50 (second compound 0.1 µM): > 10 µM
IC50 (second compound 0.316 µM): > 10 µM
IC50 (second compound 1 µM): > 10 µM
IC50 (second compound 3.16 µM): > 10 µM
IC50 (second compound 10 µM): > 10 µM
viability, T/C [1]: 109%
viability, T/C [2]: 106%
viability, T/C [3]: 104%
viability, T/C [4]: 102%
viability, T/C [5]: 104%
viability, T/C [6]: 102%
viability, T/C [7]: 105%
viability, T/C [8]: 101%
viability, T/C [9]: 104%
viability, T/C [10]: 101%
viability, T/C [11]: 101%
viability, T/C [12]: 102%
viability, T/C [13]: 109%
viability, T/C [14]: 108%
viability, T/C [15]: 106%
viability, T/C [16]: 103%
viability, T/C [17]: 104%
viability, T/C [18]: 102%
viability, T/C [19]: 105%
viability, T/C [20]: 107%
viability, T/C [21]: 105%
viability, T/C [22]: 106%
viability, T/C [23]: 107%
viability, T/C [24]: 98.2%
viability, T/C [25]: 103%
viability, T/C [26]: 106%
viability, T/C [27]: 104%
viability, T/C [28]: 104%
viability, T/C [29]: 102%
viability, T/C [30]: 100%
viability, T/C [31]: 94.3%
viability, T/C [32]: 99.9%
viability, T/C [33]: 100%
viability, T/C [34]: 99.1%
viability, T/C [35]: 96.9%
viability, T/C [36]: 92.5%

CC1COCCN1c1cc(C2(S(C)(=N)=O)CC2)nc(-c2ccnc3[nH]ccc23)n1 (centres undefined) + COC1C(OC(N)=O)C(O)C(Oc2ccc3c(O)c(NC(=O)c4ccc(O)c(CC=C(C)C)c4)c(=O)oc3c2C)OC1(C)C
IC50 (second compound 0.0316 µM): 9.95 µM
IC50 (second compound 0.1 µM): 7.81 µM
IC50 (second compound 0.316 µM): > 10 µM
IC50 (second compound 1 µM): > 10 µM
IC50 (second compound 3.16 µM): 8.35 µM
IC50 (second compound 10 µM): 8.17 µM
viability, T/C [1]: 94.7%
viability, T/C [2]: 94.6%
viability, T/C [3]: 108%
viability, T/C [4]: 105%
viability, T/C [5]: 80.4%
viability, T/C [6]: 49.8%
viability, T/C [7]: 105%
viability, T/C [8]: 92.2%
viability, T/C [9]: 95.6%
viability, T/C [10]: 93.2%
viability, T/C [11]: 80.2%
viability, T/C [12]: 41.5%
viability, T/C [13]: 81.1%
viability, T/C [14]: 105%
viability, T/C [15]: 106%
viability, T/C [16]: 101%
viability, T/C [17]: 87.2%
viability, T/C [18]: 52.5%
viability, T/C [19]: 102%
viability, T/C [20]: 101%
viability, T/C [21]: 92.5%
viability, T/C [22]: 88.6%
viability, T/C [23]: 72.6%
viability, T/C [24]: 52.8%
viability, T/C [25]: 91.8%
viability, T/C [26]: 103%
viability, T/C [27]: 103%
viability, T/C [28]: 85.7%
viability, T/C [29]: 77%
viability, T/C [30]: 44.9%
viability, T/C [31]: 89.1%
viability, T/C [32]: 84.7%
viability, T/C [33]: 96%
viability, T/C [34]: 84.2%
viability, T/C [35]: 64.7%
viability, T/C [36]: 46.9%
